Test results from PMC5702947, “A Study on Cytotoxic and Apoptotic Potential of a Triterpenoid Saponin (3-O-α-L-Arabinosyl Oleanolic Acid) Isolated from Schumacheria castaneifolia Vahl in Human Non-Small-Cell Lung Cancer (NCI-H292) Cells” (BioMed Research International, 2017).

Tests used:
[1] = test system: reactive oxygen species (ROS); experiment: Reactive oxygen species (ROS) level, NBT assay in NCI-H292 cells; assay type: cell-based, human; details: NCI-H292 cells, 0.5, 1 and 2 μg/mL (all three doses), 24 h, dose dependant
Method: (§1) Evaluation of oxidative stress markers (reactive oxygen species (ROS), glutathione-S-transferase (GST), and glutathione (GSH)) after exposure to 3-O-L-AO in NCI-H292 cells was determined as previously described by us.
NCI-H292 cells (20,000 cells/well) were plated in 96-well cell plates and incubated for 24 h. Following incubation, cells were treated with 3-O-L-AO (0.5, 1, and 2 μg/mL) and incubated for 24 h. Nitro Blue Tetrazolium (NBT) solution (1 mg/mL, 20 μL) was then added to each well and incubated for 1 h at 37°C. Blue formazan formed was then solubalized after adding 100 μL of dimethyl sulfoxide (DMSO) and the absorbance was read at 620 nm.

survivin gene = experiment: Quantitative real-time PCR, survivin gene expression in NCI-H292 cells; assay type: cell-based, human; details: 1 and 2 μg/mL (both doses), 24 h, downregulation not significant
Method: (§2) NCI-H292 cells (2 × 10^5 cells/mL) grown in T-25 tissue culture flasks were treated with 3-O-L-AO (1 and 2 μg/mL) and incubated for another 24 h. TRIzol reagent was used to extract RNA as described by Ediriweera et al., 2016 [13]. Extracted RNA (2 μg) was incubated with 50 ng of random primers and 13.5 μL of PCR water for 5 min at 70°C. cDNA synthesis was then carried out after mixing with a maxter mix containing 5 μL MMLV (Moloney Murine Leukemia Virus Reverse Transcriptase) reaction buffer, 5 μL 10 mM dNTP mix, 25 units of RNasin, and 200 units of MMLV RT enzyme, following incubation at 37°C for 60 min, in a total volume of 25 μL. Stratagene Mx3000P real-time PCR system (Agilent Technologies, CA, USA) was used to carry out real-time PCR. Primers used have been previously described. For real-time PCR, 2 μL of cDNA was mixed with Master Mix containing 0.5 μL of forward and reverses primers, 12.5 μL SYBR Green Master Mix (Eurogentec, Seraing, Liège, Belgium), and 9.5 μL PCR water. The thermal cycle programme set for real-time PCR include stage 1, 95°C for 10 min and stage two consisting of three steps: denaturation at 95°C for 30 s, annealing at 56°C for 1 min, and extension at 72°C for 30 s and stage 2 was repeated for 40 cycles. […] Gene expression was quantified using the method described by Livak and Schmittgen, 2001 [14].

NCI-H292 cells [2] = experiment: AO/EB staining, apoptosis related morphology under fluorescence microscopy; assay type: cell-based, human; details: NCI-H292 cells, 2.5, 5 and 10 μg/mL, 24 h
Method: NCI-H292 lung cancer cells (2 × 10^4 cells/well) cultured on coverslips were treated with 3-O-L-AO (2.5, 5, and 10 μg/mL) for 24 h. After incubation, cells were washed with phosphate buffer saline (PBS) and fixed with 4% formaldehyde for 15 min. Fixed cells were again washed with PBS and stained with acridine orange/ethidium bromide as previously described by us. Stained cells were observed under a fluorescence microscope (Olympus, BX51TRF, Japan).

Bax gene = experiment: Quantitative real-time PCR, Bax gene expression in NCI-H292 cells; assay type: cell-based, human; details: 1 and 2 μg/mL (both doses), 24 h
Method: as §2

MRC-5 cells [3] = experiment: Cytomorphological changes under phase-contrast microscope, MRC-5 cells; assay type: cell-based, human; details: MRC-5 cells, 1.5, 6.25 and 12.5 μg/mL, 24, 48, 72 h, phase-contrast images
From the text: (§3) Morphological changes of lung cancer cells (NCI-H292) and normal fibroblasts (MRC-5) cells after exposure to 3-O-L-AO were captured using inverted phase-contrast microscope (Olympus CKX41, Japan).

glutathione (GSH) = experiment: Glutathione (GSH) levels in NCI-H292 cells; assay type: cell-based, human; details: NCI-H292 cells, 0.5, 1 and 2 μg/mL (all three doses), 24 h, p < 0.0001
Method: as §1
NCI-H292 cells were (1 × 10^5 cells/well) exposed to 3-O-L-AO (0.5, 1, and 2 μg/mL) for 24 h. After incubation, cells were collected by trypsinization. Collected cell pellets were mixed with ice-cold KCl (2 mL) and 0.5 M EDTA (1 mL) and sonicated for […]. Cell lysate was then centrifuged at 10,000 g for 15 min to obtain a clear supernatant and it was kept on ice throughout the experiments. Supernatent (75 μL) was mixed with 75 μL of 5% sulfosalicylic acid, 20 μL of 4% DTNB [5,5-dithiobis-(2-nitrobenzoic acid)], and 30 μL of 0.1 M potassium phosphate buffer (pH 8.0) and incubated for 30 min. Absorbance was then recorded at 412 nm and glutathione levels were calculated as nM/mg of cell lysate protein with the help of a GSH standard curve.

Staphylococcus aureus = test system: Staphylococcus aureus; design: method as in earlier work; details: cited from earlier work
p53 gene = experiment: Quantitative real-time PCR, p53 gene expression in NCI-H292 cells; assay type: cell-based, human; details: 24 h
Method: as §2

NCI-H292 cells [4] = experiment: Sulforhodamine B (SRB) cytotoxicity assay in NCI-H292 cells; assay type: cell-based; details: Homo sapiens
Method: (§4) Sulphorhodamine B (SRB) assay was used to dertmine cytotoxic effects of the compound (3-O-L-AO) in NCI-H292 and MRC-5 cells. Cells (5 × 10^3/well) were seeded in 96-well tissue culture plates and incubated for 24 h. After 24 h incubation, cells were treated with 3-O-L-AO (0.78–25 μg/mL) and incubated for 24, 48, and 72 h. Paclitaxel (0.47–15 μg/mL) was used as the positive control. Cells were washed with PBS for three times and then fixed by adding 50% trichloroacetic acid (TCA) to each well followed by washing five times with tap water. After fixing, cells were stained with 0.4% SRB dye for 20 min followed by washing five times with 1% acetic acid. Tris-base (10 mM) was then added to each well and plates were kept on a plate shaker for 1 h at room temperature. The absorbance was measured using a microplate reader (Synergy HT, USA) at wavelength of 540 nm.

caspase 3/7 = experiment: Caspase-Glo 3/7 activity assay in NCI-H292 cells; assay type: cell-based, human; details: NCI-H292 cells, 0.5, 1 and 2 μg/mL (all three doses), 24 h
Method: Caspase 3/7 activity in NCI-H292 cells was measured using the Caspase-Glo 3/7 assay kit according to manufacturer's protocol. Prior to the assay, NCI-H292 cells were treated with three doses of 3-O-L-AO (0.5, 1, and 2 μg/mL) and incubated for 24 h.

[5] = test system: glutathione-S-transferase (GST); experiment: Glutathione-S-transferase (GST) activity in NCI-H292 cell lysates; assay type: cell-based, human; details: NCI-H292 cells, 0.5, 1 and 2 μg/mL (all three doses), 24 h, p < 0.05 to p < 0.0001
Method: as §1
An aliquot of cell lysates prepared for GSH assays was used to analyse GST activity. Glutathione and CDNB (1-chloro-2,4-dinitrobenzene) were served as substrates in this assay. A mixture was prepared by mixing 490 μL of PBS (pH 6.5), 5 μL of CDNB (100 mM), and 5 μL of GSH (100 mM); 180 μL of this mixture was mixed with 20 μL of cell lysate and incubated for 5 min at 37°C. Absorbance was recoreded at 340 nm for 5 min (1-minute time intervals). Quantity of GST catalyzing the oxidation of 1 millimole of 1-chloro-2,4-dinitrobenzene per minute at 37°C was considerd as one unit of GST activity.

Escherichia coli = test system: Escherichia coli; design: method as in earlier work; details: cited from earlier work
NCI-H292 cells [6] = experiment: Cytomorphological changes under phase-contrast microscope, NCI-H292 cells; assay type: cell-based, human; details: NCI-H292 cells, 1.5, 6.25 and 12.5 μg/mL, 24, 48, 72 h, phase-contrast images
From the text: as §3

MRC-5 cells [7] = experiment: Sulforhodamine B (SRB) cytotoxicity assay in MRC-5 cells; assay type: cell-based; details: Homo sapiens
Method: as §4

| Structure (SMILES) | Reactive oxygen species (ROS) level [1] | survivin gene expression (survivin gene) | Apoptotic induction (AO/EB staining) (NCI-H292 cells [2]) | Bax gene expression (Bax gene) | Cytomorphological changes of normal lung fibroblast cells (MRC-5 cells [3]) | GSH levels (glutathione (GSH)) | Antibacterial effects against Staphylococcus aureus (Staphylococcus aureus) | p53 gene expression (p53 gene; 1 μg/mL) | p53 gene expression (p53 gene; 2 μg/mL) | IC50 (NCI-H292 cells [4]; 24 h incubation) | IC50 (NCI-H292 cells [4]; 48 h incubation) | IC50 (NCI-H292 cells [4]; 72 h incubation) | Caspase 3/7 activity compared to untreated control (caspase 3/7) | GST levels (activity) [5] | Antibacterial effects against Escherichia coli (Escherichia coli) | Cytomorphological changes of lung cancer cells (NCI-H292 cells [6]) | IC50 (MRC-5 cells [7]; MRC5, 24 h incubation) | IC50 (MRC-5 cells [7]; MRC5, 48 h incubation) | IC50 (MRC-5 cells [7]; MRC5, 72 h incubation) |
| --- | --- | --- | --- | --- | --- | --- | --- | --- | --- | --- | --- | --- | --- | --- | --- | --- | --- | --- | --- |
| CC1(C)CCC2(C(=O)O)CCC3(C)C(=CCC4C5(C)CCC(OC6OCC(O)C(O)C6O)C(C)(C)C5CCC43C)C2C1 [3-O-L-AO, 3-O-α-L-arabinosyl oleanolic acid] | significantly (p < 0.05 to p < 0.0001) increased | downregulation | dose dependent apoptotic induction | Significant (p < 0.001 and p < 0.0001) upregulation | decreased cell volume and rounding up cells | Significant reduction | Moderate antibacterial effects | upregulation | significant (p < 0.05) upregulation | 4.33 µg/mL | 2.69 µg/mL | 1.5 µg/mL | Significant (p < 0.0001) increase | increase | Moderate antibacterial effects | decreased cell volume and rounding up cells | 5.4 µg/mL | 4.59 µg/mL | 2.83 µg/mL |
| CC(=O)O[C@H]1C(=O)[C@@]2(C)[C@H]([C@H](OC(=O)c3ccccc3)[C@]3(O)C[C@H](OC(=O)[C@H](O)[C@@H](NC(=O)c4ccccc4)c4ccccc4)C(C)=C1C3(C)C)[C@]1(OC(C)=O)CO[C@@H]1C[C@@H]2O [Paclitaxel, reference compound] |  |  |  |  |  |  |  |  |  | 8.37 µg/mL | 3.28 µg/mL | 1.59 µg/mL |  |  |  |  | 1.51 µg/mL | 0.96 µg/mL | 0.35 µg/mL |
